Consider seven molecules from PMC3265476, “Functional Characterization of MODY2 Mutations Highlights the Importance of the Fine-Tuning of Glucokinase and Its Role in Glucose Sensing” (PLoS ONE, 2012).

Changes are numbered by the printed parent chain. Read-outs that look alike come from different tables or passages of the source.

Format in all cases: biochemical
The target of test [1] is T1, GST-GK(p.Ala449Thr) (Homo sapiens, UniProt P35557, A449T).
T1 construct: made in house; host or cells: E. coli
T1 sequence (P35557 1-465 A449T): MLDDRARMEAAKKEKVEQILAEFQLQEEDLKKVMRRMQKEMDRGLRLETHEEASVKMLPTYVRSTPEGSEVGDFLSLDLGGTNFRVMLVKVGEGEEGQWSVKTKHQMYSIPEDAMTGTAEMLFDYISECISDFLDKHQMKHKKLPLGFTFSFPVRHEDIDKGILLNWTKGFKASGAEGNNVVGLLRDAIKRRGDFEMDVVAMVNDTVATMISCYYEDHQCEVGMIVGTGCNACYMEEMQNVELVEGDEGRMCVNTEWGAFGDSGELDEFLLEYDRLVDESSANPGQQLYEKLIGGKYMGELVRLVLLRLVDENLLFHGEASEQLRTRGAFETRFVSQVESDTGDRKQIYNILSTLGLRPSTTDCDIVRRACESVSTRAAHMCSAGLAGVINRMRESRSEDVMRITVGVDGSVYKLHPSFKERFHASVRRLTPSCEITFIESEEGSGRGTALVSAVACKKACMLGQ
As to the kind of experiment: Effect of GK synthetic activator on kinetic parameters. As to the method:
(§1) Glucokinase activity was measured spectrophotometrically on a spectrophotometer Uviconxl (Secoman), using an NADP^+-coupled assay with glucose-6-phosphate dehydrogenase, as described previously. The final reaction mixture contained 100 mM Tris pH 7.4, 150 mM KCl, 1 mM MgCl2, 1.4 mM ß-mercaptoethanol, 0.1% BSA, 5 mM ATP-MgCl2, 1 mM NADP^+, and 1 U/ml glucose-6-phosphate dehydrogenase. Determination of kinetic parameters and thermal stability tests were performed as in [20]. […] Inhibition by NAG and MH was determined under standard assay conditions with 50 nM glucokinase. The inhibition by palmitoylCoA was determined in reaction mixtures containing 25 mM Hepes pH 7.1; 25 mM KCl; 1 mM NADP, 1 mM ATP-MgCl2; 2.5 mM MgCl2; 5 mM ß-mercaptoethanol, 1 U/ml glucose-6-phosphate dehydrogenase and 61 nM glucokinase. Due to the low Kcat value of mutant GST-GK(pAla449Thr), the amount of protein used in inhibition assays was 180 nM to get sufficient activity to allow for accurate determination of the inhibitor effect. In these conditions, GK activity (U/mg of GST-GK(pAla449Thr)) in the absence of inhibitors was 1.3±0.08, 1.1±0.06 and 0.9±0.05 at 2, 1.5 and 1 mM of glucose, respectively for NAG and MH assays and 0.5±0.05, 0.33±0.03 and 0.27±0.03 at 2, 1.5 and 1 mM glucose, respectively for palmitoyl-CoA assay.
(§2) GK activator LY2121260 was kindly provided by Elli Lilly and Co, Indianapolis, IN, USA. A stock solution of 1 mM LY2121260 was prepared in 12.5 mM Hepes pH 7.4 with 80% DMSO. Results are shown as means ± SEM, and statistical significance was analysed by the two-tailed Student's t-test. P values of <0.05 were considered statistically significant. The structural analysis of mutations was carried out using the crystal structure of human GK [18] and visualized using the Pymol Molecular Graphics System (Schrödinger).

Test [2] deals with T2, Wild-type GST-GK (Homo sapiens, UniProt P35557).
T2 construct: made in house; host or cells: E. coli
T2 sequence (P35557 1-465): T1 sequence (P35557 1-465 A449T) with T449A
Described as above. As to the method:
as §1, §2

Test [3] deals with T1, GST-GK(p.Ala449Thr). As to the kind of experiment: Inhibition of glucokinase activity by NAG and MH, Dixon plots. As to conditions: for IC50: glucose 1, 1.5 and 2 mM, 180 nM protein. As to the method: as §1
Test [4] concerns the target T2, Wild-type GST-GK. The test is described as above. As to conditions: glucose 2, 5 and 8 mM, 50 nM glucokinase. As to the method:
as §1

Test [5] has as its target T3, GST-GK(p.Gly223Ser) (Homo sapiens, UniProt P35557, G223S).
T3 construct: made in house; host or cells: E. coli
T3 sequence (P35557 1-465 G223S): T1 sequence (P35557 1-465 A449T) with G223S, T449A
The test is described as above. The settings on record: glucose 12.5, 25 and 50 mM. As to the method:
as §1

The subject of test [6] is human beta-cell glucokinase. Description: Kinetic analysis of recombinant GST-GK fusion proteins (NADP+-coupled assay with glucose-6-phosphate dehydrogenase). The settings on record: for S0.5 for glucose: means ± SEM; for overall activity, % of the wild-type protein: reflected in the relative activity index; for nH (Hill coefficient): unit less.
Description: The expression and purification of fusion proteins from E. coli was performed as described previously [22]. Fusion proteins were stored at a concentration of about 1 mg/ml at −80°C in 30% glycerol, 50 mM glucose, 10 mM glutathione, 5 mM DTT, 200 mM KCl and 50 mM Tris/HCl pH = 8.0. Protein concentrations were determined using the Bio-Rad Protein Assay (Bio-Rad Laboratories, GmbH), with bovine serum albumin as standard.
Glucokinase activity was measured spectrophotometrically on a spectrophotometer Uviconxl (Secoman), using an NADP^+-coupled assay with glucose-6-phosphate dehydrogenase, as described previously [22]. The final reaction mixture contained 100 mM Tris pH 7.4, 150 mM KCl, 1 mM MgCl2, 1.4 mM ß-mercaptoethanol, 0.1% BSA, 5 mM ATP-MgCl2, 1 mM NADP^+, and 1 U/ml glucose-6-phosphate dehydrogenase. Determination of kinetic parameters and thermal stability tests were performed as in [20].
One unit of GK is defined as the amount of enzyme that phosphorylates 1 µmol of glucose per min at 30°C.
The target in test [7] is T1, GST-GK(p.Ala449Thr). As to the kind of experiment: Inhibition of glucokinase activity by human GKRP. As to conditions: 5 mM glucose; GKRP 0 to 200 nM; 10 µM S6P or 0.2 mM F1P. The protocol:
Purified human GKRP was kindly provided by KJ Brocklehurst (Cardiovascular and Gastrointestinal Department, AstraZeneca, Macclesfield, Cheshire SK10 4TG, UK). The effect of GKRP on glucokinase activity was determined as described. The final reaction mixture contained 25 mM Hepes pH 7.1; 25 mM KCl; 1 mM NADP, 1 mM ATP-MgCl2; 2.5 mM MgCl2; 5 mM ß-mercaptoethanol, 1 U/ml glucose-6-phosphate dehydrogenase, 61 nM of GST-GK or 180 nM GST-GK(pAla449Thr), 5 mM glucose, GKRP (0 to 200 nM) and, when indicated, 10 µM sorbitol-6-phosphate (S6P) or 0.2 mM fructose-1-phosphate (F1P). In these conditions, GST-GK(pAla449Thr) activity in the absence of GKRP was 0.8±0.09 U/mg of protein.
Figure 2 Effect of mutation p.Ala449Thr on the GK interaction with GKRP. A) Inhibition of glucokinase activity by human GKRP. Enzyme activity was measured at 5 mM glucose as described in Material and Methods, in the presence of 10 µM S6P (left panel) or 0.2 mM F1P (right panel). Results are means ± SEM for three independent enzyme purifications assayed in triplicate. B) Two-hybrid interaction of GBD-GKRP with GAD-GK or GAD-GK(p.Ala449Thr) mutant. Yeast strain Y187 was used, and fusion proteins were expressed from pGBKT7 and pACTII derivatives. Values are means ± SEM from ß-galactosidase activity of six independent transformants.

Molecule `CS(=O)(=O)c1ccc([C@@]2(C(=O)Nc3nccs3)C[C@H]2C2CCCCC2)cc1` [LY2121260] showed an S0.5 for glucose in test [1] (10 µM GK activator, 0.8% DMSO) of 3.1 ± 0.3 mM. Also, the “effect on S0.5” value in test [1] (10 µM activator) is “did not affect”. For the same molecule, in test [2] (10 µM GK activator, 0.8% DMSO, wild type with buffer = 100), the “Kcat (%)” value is given as 130.8±3.9 %. Also, in test [2] (10 µM activator), the “increase of Kcat” value is given as “about 30%” and the “increase of affinity for glucose” value was “about 5 fold”.

As to `O=C(CO)[C@@H](O)[C@@H](O)[C@H](O)[C@H](O)CO` [MH, mannoheptulose], the IC50 in test [3] (read-out: I50 for MH) worked out at 670 ± 40 µM; in test [4] (read-out: I50 for MH) it was 1150 ± 370 µM; in test [5] (read-out: I50 for MH) it was 3550 ± 630 µM.

In the case of `CC(=O)N[C@@H]1[C@@H](O)[C@H](O)[C@@H](CO)O[C@H]1O` [NAG, N-acetylglucosamine], the IC50 in test [3] (read-out: I50 for NAG) amounted to 200 ± 60 µM; in test [4] (read-out: I50 for NAG), 210 ± 40 µM; in test [5] (read-out: I50 for NAG), 380 ± 45 µM. Further, in test [3] (vs wild type), the “effect of mutation on inhibition by NAG” value is on record as “did not affect the inhibition”.

B1: GST-GK (p.Ile130Thr): recombinant GST-glucokinase fusion protein with MODY2 mutation p.Ile130Thr (protein, UniProt P35557 1-465, looked up, variant I130T)
Hexokinase-4: T1 sequence (P35557 1-465 A449T) with I130T, T449A
modifications: N-terminal GST fusion
On to B1, for which, in test [6], the S0.5 for glucose is 8.59 ± 0.45 mM; the “overall activity, % of the wild-type protein” value is on record as “lower than 20%”; the “nH (Hill coefficient)” value worked out at 1.01±0.02.

B2: GST-GK (p.Asp205His): recombinant GST-glucokinase fusion protein with MODY2 mutation p.Asp205His (protein, UniProt P35557 1-465, looked up, variant D205H)
Hexokinase-4: T1 sequence (P35557 1-465 A449T) with D205H, T449A
modifications: N-terminal GST fusion
Regarding B2, in test [6], the S0.5 for glucose entry was “No activity at all” and the “nH (Hill coefficient)” value was “No activity at all”.

B3: GST-GK (p.Gly223Ser): recombinant GST-glucokinase fusion protein with MODY2 mutation p.Gly223Ser (protein, UniProt P35557 1-465, looked up, variant G223S)
Hexokinase-4: T1 sequence (P35557 1-465 A449T) with G223S, T449A
modifications: N-terminal GST fusion
For B3, in test [6], the S0.5 for glucose is 44.0 ± 3.81 mM; the “overall activity, % of the wild-type protein” value was less than 10%; the “nH (Hill coefficient)” value worked out at 1.13±0.01.

B4: GKRP: purified human glucokinase regulatory protein, competitive inhibitor with respect to glucose (protein, UniProt Q14397 1-625, looked up)
Glucokinase regulatory protein: MPGTKRFQHVIETPEPGKWELSGYEAAVPITEKSNPLTQDLDKADAENIVRLLGQCDAEIFQEEGQALSTYQRLYSESILTTMVQVAGKVQEVLKEPDGGLVVLSGGGTSGRMAFLMSVSFNQLMKGLGQKPLYTYLIAGGDRSVVASREGTEDSALHGIEELKKVAAGKKRVIVIGISVGLSAPFVAGQMDCCMNNTAVFLPVLVGFNPVSMARNDPIEDWSSTFRQVAERMQKMQEKQKAFVLNPAIGPEGLSGSSRMKGGSATKILLETLLLAAHKTVDQGIAASQRCLLEILRTFERAHQVTYSQSPKIATLMKSVSTSLEKKGHVYLVGWQTLGIIAIMDGVECIHTFGADFRDVRGFLIGDHSDMFNQKAELTNQGPQFTFSQEDFLTSILPSLTEIDTVVFIFTLDDNLTEVQTIVEQVKEKTNHIQALAHSTVGQTLPIPLKKLFPSIISITWPLLFFEYEGNFIQKFQRELSTKWVLNTVSTGAHVLLGKILQNHMLDLRISNSKLFWRALAMLQRFSGQSKARCIESLLRAIHFPQPLSDDIRAAPISCHVQVAHEKEQVIPIALLSLLFRCSITEAQAHLAAAPSVCEAVRSALAGPGQKRTADPLEILEPDVQ
Regarding B4, the “enzymatic inhibition by GKRP, mutant vs wild type” value in test [7] is given as “the same”.
